Consider 5 compounds from patent publication US9980980B2, “Compounds, compositions and methods for protecting brain health in neurodegenerative disorders” (Amazentis SA, priority 2009, dated 2018).

The first assay deals with PC12 cells. Nature of the assay: Inhibition of Aβ-oligomer induced neuronal cell death in PC12 cells (MTT). Format: cell-based, Rat. To be noted: pre-aggregated Aβ (25-35) 10 μM, 24 h; MTT cell viability. How it is done: The fractions that were able to inhibits oligomer formation were also tested for their ability to inhibit Aβ-oligomer induced neuronal cell death using […], a well known and accepted model of neuronal cell culture.
Beta Amyloid peptide (Aβ) 25-35 trifluoroacetate salt (ref H-1192, lot 2000718) was purchased from Bachem (Bubebdorf, Switzerland). Thiazolyl Blue Tetrazolium Bromide (MTT, ref. M2128) was purchased from Sigma-Aldrich (Saint-Quentin Fallvier, France). Albumin Bovine Fraction V (BSA, ref 160069) was purchased from MPBio (Irvine, USA).
Cells: Rat Pheochromocytoma cells (PC12) were maintained in DMEM (4.5 g/L glucose) supplemented with 10% Horse Serum (HS), 5% Fetal Bovine Serum (FCS) and 100 U/mL penicillin and 100 μg/mL Streptomycin at 37° C. under 5% CO2.
Preparation of Aβ (25-35): It has been reported that Aβ oligomers are more toxic to neurons than monomers. […]
Determination of Hydro-Alcoholic Pomegranate Extracts Ability to Protect PC12 Cells Against Aβ Insult: The ability of Pomegranate extracts to protect PC12 cells from Aβ (25-35) oligomer induced toxicity was determined by measuring reduction of MTT to MTT formazan, which reflects cell viability. […] The level of MTT reduction and thus cell viability was determined by a colorimetric assay measuring the optical density at 595 nm using a microplate reader (BioTek EL808).
For the compound `O=C1O[C@H]2[C@@H]3OC(=O)c4cc(O)c(O)c(O)c4-c4c(O)c(O)c5oc(=O)c6c(c(O)c(O)c7oc(=O)c4c5c76)-c4c(cc(O)c(O)c4O)C(=O)OC[C@H]3OC(O)[C@@H]2OC(=O)c2cc(O)c(O)c(O)c2-c2c1cc(O)c(O)c2O` (mixture of isomers) [Punicalagin], the “protection of PC12 neuronal cells from the toxicity of Aβ (25-35) oligomers” value is “responsible for the observed activity”.

In another assay the target is T1, Aβ(25-35) (Homo sapiens, UniProt P05067).
T1 construct: Monomeric Aβ(25-35) purchased from Bachem Pharma; purchased Bachem Pharma
Nature of the assay: Screening assay for inhibition of Aβ(25-35) aggregation (Thioflavin-T fluorescence). The following applies: molecule at purity above 90%; ThT fluorescence, 25° C., 0-120 minutes; read-out: IC50 for inhibiting aggregation of Aβ25-35. In kind it is biochemical. As to the method:
Monomeric Aβ(25-35) purchased from Bachem Pharma, was dissolved in distilled sterile water at 4° C., then sonitcated for about 1 minute. The peptide stock solution was then aliquoted and stored at −20° C. All steps were carried out at 4° C. to prevent Aβ(25-35) polymerization.
Fractions of polyphenols were all standardized to 10 μg/mL, before being assessed and stored at −20° C. Measurement of inhibition was performed by following the kinetic of Aβ(25-35) polymerization in a reaction mixture containing 70 μL phosphate buffer, 10 μL Thioflavin-T (100 μM stock solution), 10 μL MeOH (10 mM final concentration) pH 7.2 and 10 μL of Aβ(25-35) (100 μM final concentration) adapting known in the art procedures. LeVine, H., 3rd (1993). “Thioflavine T interaction with synthetic Alzheimer's disease beta-amyloid peptides: detection of amyloid aggregation in solution.” Protein Sci. 2(3): 404-10. When Aβ(25-35) was added to the buffer solution, the solution was sonicated for an additional minute.
To study the inhibitory activity of the fractions, the extracts were diluted to the final concentration in MeOH and 10 μL was added to the mixture at 4° C. Fluorescence spectroscopy was recorded with the excitation at 450 nm and emission at 490 nm. The polymerization kinetics was monitored at 25° C. between 0 and 120 minutes. The IC50 was calculated by using a least-square fitting technique to match the experimental data with a sigmoidal curve. The IC50 was the effective concentration dose of the compound inhibiting the formation of Aβ fibrils to 50% of the control value.
A word on the IC50: it is the concentration at which inhibition is half-maximal. With `O=C1OC[C@H]2OC(O)[C@H](O)[C@@H](O)[C@@H]2OC(=O)c2cc(O)c(O)c(O)c2-c2c(O)c(O)c3oc(=O)c4c(c(O)c(O)c5oc(=O)c2c3c54)-c2c1cc(O)c(O)c2O` (mixture of isomers) [Punicalin], the IC50 amounted to 10 µM.

For Tellimagrandin, the IC50 came out at 6.8 µM.

Regarding `O=C1OC[C@H]2OC(O)[C@@H]3OC(=O)c4cc(O)c(O)c(O)c4-c4c(cc(O)c(O)c4O)C(=O)O[C@H]3[C@@H]2OC(=O)c2cc(O)c(O)c(O)c2-c2c1cc(O)c(O)c2O` (stereo partly drawn) [Pedunculagin], the IC50 was 11 µM.

As to `O=C(O[C@@H]1O[C@@H]2COC(=O)c3cc(O)c(O)c(O)c3-c3c(cc(O)c(O)c3O)C(=O)O[C@H]([C@H]1O)[C@@H]2O)c1cc(O)c(O)c(O)c1` [Corilagin], the IC50 was found to be 65 µM.

`O=C1O[C@H]2[C@@H]3OC(=O)c4cc(O)c(O)c(O)c4-c4c(O)c(O)c5oc(=O)c6c(c(O)c(O)c7oc(=O)c4c5c76)-c4c(cc(O)c(O)c4O)C(=O)OC[C@H]3OC(O)[C@@H]2OC(=O)c2cc(O)c(O)c(O)c2-c2c1cc(O)c(O)c2O` (mixture of isomers) [Punicalagin]: the IC50 was 6 µM.
